Reference: PubChem BioAssay (NCI)
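How tested: cells in 96-well plates exposed to compound for 48 hours at five concentrations. GI50 is the concentration that inhibits growth by half. TGI: concentration producing complete growth inhibition.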

Columns and labels:
Experiment in all cases: NCI-60 cell line screen, 48 h
[1] = system: KM20L2 colon
[2] = system: SN12C renal
[3] = system: UACC-62 melanoma
[4] = system: NCI-H23 lung
[5] = system: DMS 114 small cell lung
[6] = system: SF-268 CNS
[7] = system: M19-MEL melanoma
[8] = system: RPMI-8226 leukemia
[9] = system: SK-MEL-5 melanoma
[10] = system: BT-549 breast

Row | Structure (SMILES) | TGI [1] [µM] | TGI [2] [µM] | TGI [3] [µM] | TGI [4] [µM] | TGI [5] [µM] | TGI [6] [µM] | TGI [7] [µM] | TGI [8] [µM] | TGI [9] [µM] | TGI [10] [µM] | GI50 [8] [µM] | GI50 [1] [µM] | GI50 [2] [µM] | GI50 [3] [µM] | GI50 [4] [µM] | GI50 [5] [µM] | GI50 [9] [µM] | GI50 [6] [µM] | GI50 [7] [µM]
1 | CCOC(=O)C1(Cc2ccccc2)CCCCCN1 (stereo unspecified) | > 100 | > 100 | > 100 | > 100 | > 100 | > 100 | > 100 | – | – | – | – | – | – | – | – | – | – | – | –
2 | COc1cccc(C(=O)N2CCc3ccccc32)c1OC | > 100 | > 100 | > 100 | > 100 | > 100 | – | > 100 | > 100 | > 100 | – | – | – | – | – | – | – | – | – | –
3 | Cc1c(C(=O)NCCO)[n+](=O)c2cc(Cl)ccc2n1[O-] | > 100 | > 100 | > 100 | > 100 | > 100 | > 100 | > 100 | > 100 | > 100 | – | – | – | – | – | – | – | – | – | –
4 | CCOc1ccc(/C=C(\Cl)c2ccc(OC)c(OC)c2)cc1 | 40.1 | > 100 | > 100 | > 100 | > 100 | > 100 | > 100 | > 100 | > 100 | – | – | – | – | – | – | – | – | – | –
5 | CN(CN1C(=O)C2Cc3ccccc3CN2C1=O)c1ccccn1 (stereo unspecified) | > 100 | > 100 | > 100 | > 100 | > 100 | > 100 | > 100 | > 100 | > 100 | – | – | – | – | – | – | – | – | – | –
6 | COC(=O)c1sc(C(=O)OC)c2c1CSC2 | > 100 | > 100 | > 100 | > 100 | > 100 | > 100 | > 100 | > 100 | > 100 | > 100 | – | – | – | – | – | – | – | – | –
7 | C1CCN(c2nsc(N3CCCCC3)n2)CC1 | > 100 | > 100 | > 100 | > 100 | > 100 | > 100 | > 100 | > 100 | > 100 | – | – | – | – | – | – | – | – | – | –
8 | CN(C)C(N)=NC#N | > 100 | > 100 | > 100 | > 100 | > 100 | > 100 | > 100 | > 100 | > 100 | – | – | – | – | – | – | – | – | – | –
9 | C=C=C(CC)C(C(=O)OC)N(CC)CC (stereo unspecified) | > 100 | > 100 | > 100 | > 100 | > 100 | > 100 | > 100 | > 100 | > 100 | – | – | – | – | – | – | – | – | – | –
10 | N=c1nnc(=O)c2c(s1)-n1ncc(C(=O)O)c1NN2 | > 100 | > 100 | > 100 | > 100 | > 100 | > 100 | > 100 | > 100 | > 100 | – | – | – | – | – | – | – | – | – | –
11 | Cc1ccc(S(=O)(=O)NC(=O)NC23CC4CC(CC(F)(C4)C2)C3)cc1 | > 100 | – | > 100 | > 100 | > 100 | – | > 100 | > 100 | > 100 | – | – | – | – | – | – | – | – | – | –
12 | O=C(O)/C(=C/c1c(O)ccc2ccccc12)c1csc(-c2nc(/C(=C\c3c(O)ccc4ccccc34)C(=O)O)cs2)n1 | 50.6 | – | 23.3 | 27.1 | 25.5 | 26.3 | 19.9 | 43.8 | 37.1 | – | – | – | – | – | – | – | – | – | –
13 | C(=N\OCc1ccccc1)/c1ncccc1C1OCCO1 | > 100 | > 100 | > 100 | > 100 | > 100 | > 100 | > 100 | – | > 100 | – | – | – | – | – | – | – | – | – | –
14 | O=C1O/C(=C(\Br)c2cccc3ccccc23)c2ccccc21 | > 59.5 | 47.2 | > 55.6 | > 55.8 | > 48.4 | > 55.7 | > 58.5 | 71.4 | 51.1 | – | – | – | – | – | – | – | – | – | –
15 | O=C1C[C@@H]2C(COC(=O)c3ccccc3)N(OCc3ccccc3)C[C@@H]2O1 (stereo partly specified) | > 100 | > 100 | > 100 | > 100 | > 100 | > 100 | > 100 | – | > 100 | – | – | – | – | – | – | – | – | – | –
16 | NC(=O)N/N=C/C(/C=N/NC(N)=O)[N+](=O)[O-] | > 100 | > 100 | > 100 | > 100 | > 100 | > 100 | > 100 | > 100 | – | – | – | – | – | – | – | – | – | – | –
17 | CC(=O)OCCOCNC(=S)N/N=C(\C)c1cnc2ccccc2n1 | > 100 | > 100 | 39.7 | > 100 | 47.4 | > 100 | 77.1 | > 100 | > 100 | – | – | – | – | – | – | – | – | – | –
18 | CCNC(=O)C#CC(=O)NCC | > 100 | > 100 | > 100 | > 100 | > 100 | > 100 | > 100 | > 62.8 | > 100 | – | > 10 | > 10 | > 10 | > 10 | > 10 | > 10 | > 10 | > 10 | > 10
19 | COc1cccc(NC(=O)CC(=O)N2N=C(N(CCC#N)c3ccccc3C)CC2c2ccccc2)c1 (stereo unspecified) | > 100 | > 100 | > 100 | > 100 | > 100 | > 100 | > 100 | > 100 | > 100 | – | – | – | – | – | – | – | – | – | –
20 | O=C(Nc1nc2ccccc2n1Cc1ccccc1)NC12CC3CC(CC(C3)C1)C2 | > 100 | > 100 | > 100 | > 100 | > 100 | 35.5 | > 100 | > 100 | > 100 | – | – | – | – | – | – | – | – | – | –
21 | CN1NC2(CCCCC2)ON=C1c1ccccc1 | > 100 | > 100 | > 100 | > 100 | > 100 | > 100 | – | – | > 100 | – | – | – | – | – | – | – | – | – | –
22 | COc1ccc2c(c1OC)C1=C(C2=O)c2cc3c(cc2CCN1)OCO3 | 41 | > 100 | > 100 | > 100 | 56.7 | > 100 | > 100 | 59.3 | 84.3 | – | – | – | – | – | – | – | – | – | –
23 | CCC(=O)C(C)C1=Nc2nnc(CCCCCCCc3nnc4n3C(=O)C(C(C)C(=O)CC)=N4)n2C1=O (stereo unspecified) | > 100 | > 100 | > 100 | > 100 | > 100 | > 100 | > 100 | > 100 | > 100 | – | – | – | – | – | – | – | – | – | –
